Source: ChEMBL document CHEMBL1145264, “Synthesis of tricyclic analogs of stephaoxocanidine and their evaluation as acetylcholinesterase inhibitors” (Bioorg Med Chem Lett, 2005)
pIC50: −log10 of the molar value. “And” between values parts separate entries of the source, which are not always exact repeats. Equal values may be shown once.

Molecular target: Acetylcholinesterase (Homo sapiens, UniProt P22303)
Sequence (P22303 whole entry): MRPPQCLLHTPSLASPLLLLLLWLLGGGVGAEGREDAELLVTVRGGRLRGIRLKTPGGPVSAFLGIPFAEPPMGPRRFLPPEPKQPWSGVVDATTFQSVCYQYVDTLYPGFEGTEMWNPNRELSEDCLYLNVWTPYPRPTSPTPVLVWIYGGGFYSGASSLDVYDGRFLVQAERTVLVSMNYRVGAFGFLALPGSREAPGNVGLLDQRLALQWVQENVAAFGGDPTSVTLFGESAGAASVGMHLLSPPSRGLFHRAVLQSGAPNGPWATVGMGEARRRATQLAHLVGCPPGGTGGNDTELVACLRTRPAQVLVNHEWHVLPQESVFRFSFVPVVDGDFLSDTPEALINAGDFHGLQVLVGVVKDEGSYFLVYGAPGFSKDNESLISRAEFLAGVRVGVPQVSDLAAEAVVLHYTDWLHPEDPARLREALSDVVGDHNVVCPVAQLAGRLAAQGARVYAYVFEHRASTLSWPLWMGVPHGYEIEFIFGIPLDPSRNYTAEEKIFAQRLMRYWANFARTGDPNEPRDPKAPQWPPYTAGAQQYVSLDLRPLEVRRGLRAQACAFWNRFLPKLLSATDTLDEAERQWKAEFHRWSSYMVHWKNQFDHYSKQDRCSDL
Description: Inhibitory concentration against acetylcholinesterase

Q: `C=CCC1(OC)OCc2c(OC)c(OC)cc3ccnc1c23` (stereo not drawn) was tested. Which pIC50 did it give?
A: 4.00

Q: `COc1cc2ccnc3c2c(c1OC)COC3(CC(O)CO)OC` (stereo not drawn) was tested. Which pIC50 did it give?
A: 4.02

Q: `COc1cc2cc[n+](C)c3c2c(c1OC)C(Br)OC3=O` (stereo not drawn) was tested. Which pIC50 did it give?
A: 3.98 and 3.92

Q: With `COc1cc2ccnc3c2c(c1OC)C(Br)OC3=O` (stereo not drawn) as the compound, how does the pIC50 read?
A: 4.34 and 4.33

Q: How did the pIC50 turn out when `COc1cc2ccnc3c2c(c1OC)COC3(CCCO)OC` (stereo not drawn) was run?
A: 3.86

Q: With `COc1cc2ccnc3c2c(c1OC)COC3=O` as the compound, how does the pIC50 read?
A: 4.71

Q: How did the pIC50 turn out when `COc1cc2ccnc3c2c(c1OC)COC3(O)CC(O)CO` (stereo not drawn) was run?
A: 3.96

Q: How did the pIC50 turn out when `C=CCC1(O)OCc2c(OC)c(OC)cc3ccnc1c23` (stereo not drawn) was run?
A: 3.76
